Test results taken from the supplement of paper PMC10307832.

How the values were obtained:
Selisistat = compound: C1CC(C2=C(C1)C3=C(N2)C=CC(=C3)Cl)C(=O)N [Selisistat]; test: relative viability (nuclei count vs DMSO), 5 days (fraction); higher = more cells survive
Procedure, shortened: (§1)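 Following overnight incubation at 37 °C, lung cancer cell lines in 1536-well plates were pinned with five library-drug doses (not always all listed) in √10 steps on vehicle-anchored plates. The cells then spent 5 days without medium change before a combined fix, permeabilisation and Hoechst stain, 4× imaging and MetaXpress nuclear counts. Viability is the treated-to-vehicle ratio of nuclei, taken as the median across plates. Only plates with control CV below 25% and at least one doubling passed.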

Serdemetan = compound: c1ccc2c(CCNc3ccc(Nc4ccncc4)cc3)c[nH]c2c1 [Serdemetan]; test: as above
Procedure, shortened: as §1

| Cell Line | relative viability (Selisistat; 0.4 µM) | relative viability (Selisistat; 1.265 µM) | relative viability (Selisistat; 4 µM) | relative viability (Selisistat; 12.65 µM) | relative viability (Selisistat; 40 µM) | relative viability (Serdemetan; 0.04 µM) | relative viability (Serdemetan; 0.1265 µM) | relative viability (Serdemetan; 0.4 µM) | relative viability (Serdemetan; 1.265 µM) | relative viability (Serdemetan; 4 µM) |
| --- | --- | --- | --- | --- | --- | --- | --- | --- | --- | --- |
| 201T | 1.02 | 0.996 | 0.875 | 1.01 | 0.996 | 0.983 | 0.987 | 0.937 | 0.919 | 0.919 |
| A549 | 1.05 | 0.901 | 0.952 | 0.898 | 0.982 | 0.907 | 0.938 | 0.932 | 0.778 | 0.59 |
| A-427 | 1.03 | 0.984 | 0.845 | 0.971 | 0.944 | 0.954 | 1 | 1.03 | 0.762 | 0.825 |
| ABC-1 | 0.897 | 0.869 | 0.647 | 0.772 | 0.819 | 0.948 | 0.923 | 0.994 | 0.603 | 0.56 |
| BEN | 1.01 | 0.967 | 0.738 | 0.878 | 0.9 | 0.996 | 0.924 | 1.02 | 0.686 | 0.882 |
| CAL-12T | 0.964 | 0.987 | 0.747 | 0.881 | 1 | 0.967 | 1.05 | 1.01 | 0.932 | 0.927 |
| COR-L23 | 1.05 | 1.06 | 1.08 | 0.908 | 1.01 | 0.951 | 0.988 | 1.06 | 0.823 | 0.874 |
| COR-L 105 | 0.904 | 0.895 | 0.675 | 0.855 | 0.877 | 0.971 | 0.875 | 0.734 | 0.815 | 0.89 |
| Calu-6 | 1.03 | 0.965 | 0.99 | 0.976 | 1 | 1 | 1.02 | 1.02 | 0.875 | 0.677 |
| ChaGo-K-1 | 1.02 | 0.942 | 0.8 | 0.866 | 0.97 | 0.964 | 0.95 | 0.873 | 0.624 | 0.529 |
| EBC-1 | 0.994 | 0.963 | 1.01 | 0.956 | 0.954 | 0.903 | 0.931 | 0.943 | 0.857 | 0.722 |
| EKVX | 1.05 | 0.993 | 0.788 | 0.902 | 0.92 | 0.987 | 0.987 | 0.647 | 0.627 | 0.891 |
| EMC-BAC-2 | 0.978 | 0.996 | 0.595 | 0.688 | 0.561 | 0.962 | 1.02 | 0.971 | 0.849 | 0.967 |
| EPLC-272H | 0.966 | 1.03 |  | 0.931 | 1.04 | 1.17 | 1.09 | 0.897 | 0.833 | 0.912 |
| H3255 | 0.984 | 0.943 | 0.978 | 0.948 | 1.03 | 0.968 | 0.944 | 0.987 | 0.787 | 0.896 |
| HARA | 0.955 | 0.938 | 0.749 | 0.964 | 1.07 | 0.938 | 1.01 | 0.937 | 0.757 | 0.877 |
| HCC-15 | 1.08 | 1.04 |  | 1.02 | 1.21 | 1.03 | 0.999 | 0.94 | 0.807 | 0.712 |
| HCC-44 | 1.01 | 0.738 | 1.08 | 0.982 | 1.06 | 0.935 | 0.982 | 0.944 | 0.854 | 0.962 |
| HCC-78 | 0.954 | 1.08 | 0.7 | 0.875 | 0.939 | 0.998 | 0.752 | 0.842 | 0.828 | 0.648 |
| HCC-366 | 0.997 | 0.957 | 0.894 | 1.01 | 1 | 1 | 0.989 | 0.978 | 0.121 | 0.101 |
| HCC-827 | 1.02 | 1.04 | 0.952 | 0.975 | 1 | 1.04 | 0.972 |  | 0.862 | 0.83 |
| HOP-62 | 0.997 | 0.987 | 0.861 | 0.928 | 1.07 | 1.03 | 0.999 | 1.01 | 0.873 | 0.907 |
| IA-LM | 0.945 | 0.959 | 0.918 | 0.9 | 1.01 | 0.942 | 0.963 | 0.956 | 0.711 | 0.505 |
| LC-2-ad | 1.05 | 0.762 | 0.794 | 0.926 | 1.01 | 1 | 0.962 | 0.911 | 0.962 | 0.872 |
| LCLC-97TM1 | 0.941 | 0.933 |  | 0.962 | 1.09 | 1.08 | 0.975 | 0.925 | 0.802 | 0.894 |
| LCLC-103H | 1.06 | 1.05 | 0.819 | 0.947 | 0.988 | 0.993 | 1.01 | 0.995 | 0.877 | 1.04 |
| LK-2 | 0.963 | 0.891 | 1 | 0.913 | 1.02 | 0.999 | 1.02 | 1.01 | 0.848 | 0.887 |
| LOU-NH91 | 1.05 | 0.938 | 0.884 | 0.966 | 0.973 | 1.02 | 0.946 | 0.694 | 0.783 | 0.999 |
| LU99A | 1.09 | 0.992 | 0.987 | 0.874 | 1.01 | 1.01 | 0.911 | 0.903 | 0.52 | 0.427 |
